The subject of assay [1] is mouse model with subcutaneous injection of pentylenetetrazole (sc-PTZ). Kind of assay: Antiepileptic effect in mouse model with subcutaneous injection of pentylenetetrazole (sc-PTZ). It is filed as in vivo. As to the method: A negative vehicle control group, a positive drug control group (pregabalin and gabapentin) and a test group of the compounds of the present application were set. Male ICR mice with a body weight of 22±2 g were selected. […] After fasted for 12 h, the mice were administered the compounds of the present application or the control drugs, and then subcutaneously injected with pentylenetetrazole (PTZ) to induce epilepsy seizure behaviors after a certain time interval (2 h for pregabalin, 1 h for gabapentin, and 3 h for the compounds of the present application). In an induction model, pentylenetetrazole (PTZ) was dissolved in normal saline and administered to the mice through the way of subcutaneous injection (10 mL/kg, administration dose 100 mg/kg). After the injection of PTZ, behavioral observations on the mice were conducted for 1 h, and the latent periods and numbers of the mice with convulsive seizures, clonic seizures, tonic seizures and death after the injection of PTZ were recorded.
Statistical method: Protection rates and mortality of different administration groups were separately compared with those of the vehicle control group to carry out a Fisher's exact test. The seizure time and the latent periods were analyzed by one-way ANOVA.

In assay [2] the test system is mouse 6-Hz psychomotor seizure model. Kind of assay: Antiepileptic effect in mouse 6-Hz psychomotor seizure model. It is filed as in vivo. The note with it: 6-Hz model, C57BL/6 mice, gavage, dose 300 mg/kg. As to the method: A negative vehicle control group, a positive drug control group (pregabalin and gabapentin) and a test group of the compounds of the present application were set. Male C57BL/6 mice with a body weight of 20±2 g were selected. […] After fasted for 12 h, the mice were administered the compounds of the present application or the control drugs, and then subjected to 6-Hz electrical stimulation to induce epilepsy seizure behaviors after a certain time interval (2 h for pregabalin, 1 h for gabapentin, 1 h for levetiracetam, and 3 h for the compounds of the present application). In an induction model, when the stimulation was performed with a Model 4100 stimulator (A-M Systems, the United States), rear necks of the mice were immobilized by hands on a feeding cage, a corneal electrode was moisten with normal saline and allowed to gently contact bilateral corneas of the mice, the electrical stimulator was trod by a foot to give the mice the electrical stimulation with a stimulation parameter of 6-Hz, a one-way square wave of 32 mA, a wave width of 0.2 ms and a stimulation duration of 3 sec, and timing was performed with a stopwatch during the stimulation. After the electrical stimulation was completed, the mice with the seizure behaviors lasting for less than 7 sec were regarded as being protected by the drugs, and the mice with the seizure behaviors lasting for more than 7 sec were regarded as being not protected from the epilepsy by the drugs. Response situations of the animals were observed and recorded, and obtained data were counted to calculate protection rates of the compounds.
Statistical method: The protection rates of different administration groups were separately compared with that of the vehicle control group to carry out a Fisher's exact test.

The next assay deals with postherpetic neuralgia. The note with it: cited from earlier work.
Assay [3] has as its system mouse maximum electroshock model (MES). Kind of assay: Antiepileptic effect in mouse maximum electroshock model (MES). It is filed as in vivo. The note with it: MES, ICR mice, gavage, dose 300 mg/kg. As to the method: A negative vehicle control group, a positive drug control group (pregabalin and gabapentin) and a test group of the compounds of the present application were set. Male ICR mice with a body weight of […] were selected. […] After fasted for 12 h, the mice were administered the compounds of the present application or the control drugs according to the body weight, and then subjected to electrical stimulation to induce generalized tonic-clonic seizure behaviors after a certain lime interval (2 h for pregabalin, 1 h for gabapentin, and 3 h for the compounds of the present application). A YLS-9A electrophysiological stimulator (Shanghai Xinruan Information Technology Co., Ltd.) was used in an induction model, and parameters were set as follows: configuration 8, stimulation voltage 160 V, wave number 90. When the electrical stimulation was performed, ears on both sides of the mice were firstly wiped with normal saline and then given the electrical stimulation for 1 lime with ear clip electrodes. Tonic straightening of hind limbs was used as a standard for epilepsy seizures. The animals with the tonic straightening of hind limbs were regarded as not being protected by the drugs, and the animals without the tonic straightening of hind limbs were regarded as being protected by the drugs. Response situations of the animals were observed and recorded, and obtained data were counted to calculate protection rates of the compounds.
Median effective doses (ED50) of the compounds to be tested for animal protection were calculated by a least square method (Graphpad Prism 5) with an administration dose-protection rate curve.

Assay [4] concerns diabetic peripheral neuropathic pain. As to conditions: cited from earlier work.
[5] abbreviates: sc-PTZ 100 mg/kg, ICR mice, intraperitoneal 30 mg/kg (own compounds calculated by free base), 1 h observation.

Each structure is given as a SMILES string. Where two headings read alike, the source gives them in different places. Marks after values point to notes of the source that are not given here.

On to `NCC1(CC(=O)O)CCCCC1` [Gabapentin], for which, in assay [1] (setting [5]), the Clonic seizure incidence was 10/10, the Convulsive seizure incidence is recorded as 10/10, the “Generalized clonic seizure incidence” value is recorded as 10/10 and the Mortality was 7/10. Further, the Tonic seizure incidence in assay [1] (setting [5]) is given as 6/10. Further, the “improvement of the convulsive seizure incidence and the mortality” value in assay [1] (sc-PTZ mice, 30 mg/kg) is “does not significantly improve”. The “latent periods of generalized clonic seizures, tonic seizures and death” value in assay [1] (sc-PTZ mice, 30 mg/kg (calculated by free base), FIG. 6) is on record as “not effective”. In assay [2], the “Number of animals with clonic seizures/total number” value is recorded as 2/4 and the “Protection rate (%)” value is 50.0 * %. In addition, in the assay on postherpetic neuralgia (daily dose up to 1,800 mg/day), the clinical effective rate is given as 32%. The clinical effective rate in the assay with postherpetic neuralgia (daily dose up to 2,400 mg/day) was 34%. Also, the clinical effective rate in the assay on postherpetic neuralgia (daily dose up to 3,600 mg/day) is 43%. For the same compound, in assay [3], the “Number of animals with tonic straightening of hind limbs/total number of detected animals” value was 2/8 and the “Protection rate (%)” value worked out at 75.0%.

With `CNCC[C@H](Oc1cccc2ccccc12)c1cccs1` [duloxetine], the clinical effective rate in assay [4] (60 mg/day) is on record as 49%; in assay [4] (120 mg/day), 52%.

Source of the values: patent US20260174682A1, “GAMMA-AMINOBUTYRIC ACID DERIVATIVE COMPRISING POLYCYCLIC STRUCTURE, METHOD FOR PREPARING SAME, AND USE THEREOF” (ZHONGSHAN INSTITUTE FOR DRUG DISCOVERY, SIMM, CAS., priority 2022, published 2026).
